Assays:
Homo sapiens = species on record: Homo sapiens; assay: Selectivity ratio of IC50 for human recombinant MAO-A to IC50 for human recombinant MAO-B
[1] = biological target: T1, Amine oxidase [flavin-containing] B (Homo sapiens, UniProt P27338); assay: biochemical; assay type: cell-based, BTI-TN-5B1-4
T1 sequence (P27338 whole entry): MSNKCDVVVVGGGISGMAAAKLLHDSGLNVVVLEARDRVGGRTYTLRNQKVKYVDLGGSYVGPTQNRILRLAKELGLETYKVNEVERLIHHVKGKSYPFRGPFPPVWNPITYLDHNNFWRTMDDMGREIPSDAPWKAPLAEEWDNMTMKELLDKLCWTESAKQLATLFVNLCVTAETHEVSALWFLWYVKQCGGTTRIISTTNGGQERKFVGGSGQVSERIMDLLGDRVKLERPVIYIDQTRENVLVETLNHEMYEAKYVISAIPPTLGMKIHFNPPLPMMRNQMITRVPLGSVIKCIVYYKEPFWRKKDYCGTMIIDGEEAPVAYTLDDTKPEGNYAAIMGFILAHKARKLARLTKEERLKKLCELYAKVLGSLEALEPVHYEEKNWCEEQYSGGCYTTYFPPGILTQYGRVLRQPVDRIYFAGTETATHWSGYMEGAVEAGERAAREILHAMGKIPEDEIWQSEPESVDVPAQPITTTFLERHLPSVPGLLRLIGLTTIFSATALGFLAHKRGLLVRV
Description: Inhibition of human recombinant MAO-B expressed in baculovirus infected BTI-TN-5B1-4 cells assessed as production of hydrogen peroxide from p-tyramine after 15 mins by microplate fluorescence assay

[2] = biological target: T2, Amine oxidase [flavin-containing] A (Homo sapiens, UniProt P21397); assay: Inhibition of human recombinant MAO-A expressed in baculovirus infected BTI-TN-5B1-4 cells assessed as production of hydrogen peroxide from p-tyramine at 100 uM after 15 mins by microplate fluorescence assay; details: for inhibition (INH): human, bti-tn-5b1-4, 0.25 h, 100 µM; for inhibition at 100 µM: BTI-TN-5B1-4, human, 0.25 h
T2 sequence (P21397 whole entry): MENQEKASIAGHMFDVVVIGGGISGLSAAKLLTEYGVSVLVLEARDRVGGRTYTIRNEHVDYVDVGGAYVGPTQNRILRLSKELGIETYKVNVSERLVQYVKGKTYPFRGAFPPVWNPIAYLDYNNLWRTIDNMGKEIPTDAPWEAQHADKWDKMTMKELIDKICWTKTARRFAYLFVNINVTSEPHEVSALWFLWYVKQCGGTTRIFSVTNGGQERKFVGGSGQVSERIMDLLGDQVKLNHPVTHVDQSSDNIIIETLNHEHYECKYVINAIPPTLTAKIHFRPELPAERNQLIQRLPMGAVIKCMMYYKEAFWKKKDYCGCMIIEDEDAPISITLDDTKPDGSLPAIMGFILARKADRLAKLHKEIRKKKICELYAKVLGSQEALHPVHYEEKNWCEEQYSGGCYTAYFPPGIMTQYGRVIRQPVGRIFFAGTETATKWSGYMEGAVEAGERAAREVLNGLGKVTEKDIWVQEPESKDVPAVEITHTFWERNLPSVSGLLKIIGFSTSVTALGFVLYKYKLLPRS

[3] = biological target: T1, Amine oxidase [flavin-containing] B; assay: Inhibition of human recombinant MAO-B expressed in baculovirus infected BTI-TN-5B1-4 cells assessed as production of hydrogen peroxide from p-tyramine at 100 uM after 15 mins by microplate fluorescence assay; details: for inhibition (INH): human, bti-tn-5b1-4, 0.25 h, 100 µM; for inhibition at 100 µM: BTI-TN-5B1-4, human, 0.25 h
[4] = biological target: T2, Amine oxidase [flavin-containing] A; assay: Inhibition of human recombinant MAO-A expressed in baculovirus infected BTI-TN-5B1-4 cells assessed as production of hydrogen peroxide from p-tyramine after 15 mins by microplate fluorescence assay
[5] = Hydrolytic stability of the compound in dimethyl sulfoxide after 1 to 24 hrs by NMR spectroscopic analysis; assay type: physicochemical
[6] = Hydrolytic stability of the compound in water after 1 to 24 hrs by NMR spectroscopic analysis; assay type: physicochemical
[7] = Hydrolytic stability of the compound in acetonitrile after 1 to 24 hrs by NMR spectroscopic analysis; assay type: physicochemical
[8] = Hydrolytic stability of the compound in phosphate buffer at pH 7.4 after 1 to 24 hrs by NMR spectroscopic analysis; assay type: physicochemical

CCOC(=O)c1cc2cc(Cl)cc(Br)c2oc1=O
Ratio IC50 (Homo sapiens): > 5.7 | IC50 [1]: 17.5 µM | inhibition (INH) [2]: Not Active

O=C(c1ccccc1)c1cc2c(ccc3ccccc32)oc1=O
inhibition (INH) [3]: Not Active | inhibition (INH) [2]: Not Active

COc1ccc2cc(C(=O)c3ccccc3)c(=O)oc2c1
inhibition at 100 µM [3]: 40% | inhibition (INH) [2]: Not Active

O=C(c1ccccc1)c1cc2cc(Cl)cc(Br)c2oc1=O
inhibition at 100 µM [3]: 40% | inhibition (INH) [2]: Not Active

O=C(c1ccccc1)c1cc2ccccc2oc1=O
inhibition (INH) [3]: Not Active | inhibition (INH) [2]: Not Active

CC(C)(C)c1ccc(COc2ccc3cc(C(=O)O)c(=O)oc3c2)cc1
inhibition (INH) [3]: Not Active | inhibition (INH) [2]: Not Active

CC(=O)c1cc2cc(O)ccc2oc1=O
Ratio IC50 (Homo sapiens): > 1.6 | IC50 [1]: 64.2 µM | inhibition at 100 µM [2]: 40%

O=C(O)c1cc2ccc(OC3CCCCCC3)cc2oc1=O
Ratio IC50 (Homo sapiens): > 11.6 | IC50 [1]: 8.62 µM | inhibition (INH) [2]: Not Active

Cc1ccc2oc(=O)c(C(=O)c3ccccc3)cc2c1
inhibition at 100 µM [3]: 40% | inhibition (INH) [2]: Not Active

CC(=O)c1cc2cc(Cl)ccc2oc1=O
Ratio IC50 (Homo sapiens): > 5.6 | IC50 [1]: 17.7 µM | inhibition (INH) [2]: Not Active

O=C(O)c1cc2cccc(O)c2oc1=O
Ratio IC50 (Homo sapiens): < 0.6 | inhibition at 100 µM [3]: 40% | IC50 [4]: 59.6 µM

O=C(c1ccccc1)c1cc2cc(O)ccc2oc1=O
Ratio IC50 (Homo sapiens): 2.9 | IC50 [1]: 18 µM | IC50 [4]: 51.7 µM

O=C(O)c1cc2cc(O)ccc2oc1=O
Ratio IC50 (Homo sapiens): < 0.4 | inhibition at 100 µM [3]: 40% | IC50 [4]: 40.2 µM

CCOC(=O)c1cc2ccc(O)cc2oc1=O
inhibition (INH) [3]: Not Active | inhibition (INH) [2]: Not Active

Cc1ccc(NNC(=O)c2cc3ccccc3oc2=O)cc1
Ratio IC50 (Homo sapiens): < 0.58 | inhibition (INH) [3]: Not Active | IC50 [4]: 58.4 µM

O=C(O)c1cc2cc(Br)cc(Br)c2oc1=O
inhibition (INH) [3]: Not Active | inhibition (INH) [2]: Not Active

O=C(c1ccccc1)c1cc2cc(Cl)ccc2oc1=O
inhibition (INH) [3]: Not Active | inhibition (INH) [2]: Not Active

CCOC(=O)c1cc2ccc(OCc3ccc(Cl)c(Cl)c3)cc2oc1=O
Ratio IC50 (Homo sapiens): > 10600 | Stability [5]: Stable | Stability [6]: Stable | IC50 [1]: 0.00947 µM | inhibition (INH) [2]: Not Active | Stability [7]: Stable | Stability [8]: Stable

NNC(=O)c1cc2ccccc2oc1=O
Ratio IC50 (Homo sapiens): > 31100 | Stability [5]: Stable | Stability [6]: Stable | IC50 [1]: 0.00322 µM | inhibition (INH) [2]: Not Active | Stability [7]: Stable | Stability [8]: Stable

O=C(O)c1cc2cc(Cl)cc(Br)c2oc1=O
inhibition (INH) [3]: Not Active | inhibition (INH) [2]: Not Active

CCOC(=O)c1cc2ccc(OCc3ccccc3)cc2oc1=O
Ratio IC50 (Homo sapiens): > 14300 | Stability [5]: Stable | Stability [6]: Stable | IC50 [1]: 0.00701 µM | inhibition (INH) [2]: Not Active | Stability [7]: Stable | Stability [8]: Stable

O=C(O)c1cc2ccc(OCc3ccc(Cl)c(Cl)c3)cc2oc1=O
Ratio IC50 (Homo sapiens): > 244 | IC50 [1]: 0.41 µM | inhibition (INH) [2]: Not Active

O=C(NNc1ccccc1[N+](=O)[O-])c1cc2ccccc2oc1=O
Ratio IC50 (Homo sapiens): < 0.39 | inhibition (INH) [3]: Not Active | IC50 [4]: 39.6 µM

O=C(c1ccccc1)c1cc2cccc(O)c2oc1=O
Ratio IC50 (Homo sapiens): 1.5 | IC50 [1]: 27.1 µM | IC50 [4]: 40.5 µM

CC(=O)c1cc2c(ccc3ccccc32)oc1=O
Ratio IC50 (Homo sapiens): > 50 | IC50 [1]: 2.01 µM | inhibition at 100 µM [2]: 40%

O=C(NNc1ccc([N+](=O)[O-])cc1[N+](=O)[O-])c1cc2ccccc2oc1=O
Ratio IC50 (Homo sapiens): 1.08 | IC50 [1]: 56.1 µM | IC50 [4]: 60.5 µM

COc1ccc2oc(=O)c(C(=O)O)cc2c1
inhibition (INH) [3]: Not Active | inhibition (INH) [2]: Not Active

CC(=O)c1cc2cc(Br)cc(Br)c2oc1=O
Ratio IC50 (Homo sapiens): > 500 | IC50 [1]: 0.2 µM | inhibition (INH) [2]: Not Active

O=C(c1ccccc1)c1cc2ccc(O)cc2oc1=O
inhibition (INH) [3]: Not Active | inhibition (INH) [2]: Not Active

O=C(c1ccccc1)c1cc2cc(Br)ccc2oc1=O
inhibition (INH) [3]: Not Active | inhibition (INH) [2]: Not Active

O=C(O)c1cc2cc(I)cc(I)c2oc1=O
Ratio IC50 (Homo sapiens): > 5.6 | IC50 [1]: 17.8 µM | inhibition (INH) [2]: Not Active

CC(=O)c1cc2cc(Cl)cc(Br)c2oc1=O
Ratio IC50 (Homo sapiens): 394 | IC50 [1]: 0.14 µM | IC50 [4]: 55.2 µM

CCOC(=O)c1cc2cc(O)ccc2oc1=O
Ratio IC50 (Homo sapiens): 4.9 | IC50 [1]: 10.1 µM | IC50 [4]: 49.1 µM

CCOC(=O)c1cc2cc(Br)cc(Br)c2oc1=O
inhibition at 100 µM [3]: 40% | inhibition (INH) [2]: Not Active

CC(=O)c1cc2ccccc2oc1=O [3-ACETYLCOUMARIN]
Ratio IC50 (Homo sapiens): > 6.9 | IC50 [1]: 14.5 µM | inhibition (INH) [2]: Not Active

CCOC(=O)c1cc2ccc(OC)cc2oc1=O
Ratio IC50 (Homo sapiens): > 4.3 | IC50 [1]: 23.5 µM | inhibition at 100 µM [2]: 40%

CC(=O)c1cc2cc(I)cc(I)c2oc1=O
inhibition (INH) [3]: Not Active | inhibition (INH) [2]: Not Active

CC(=O)c1cc2cc(C)ccc2oc1=O
inhibition at 100 µM [3]: 40% | inhibition (INH) [2]: Not Active

CCN(CC)c1ccc2cc(C(C)=O)c(=O)oc2c1
Ratio IC50 (Homo sapiens): > 5.5 | IC50 [1]: 18.1 µM | inhibition (INH) [2]: Not Active

COc1ccc2cc(C(=O)O)c(=O)oc2c1
inhibition at 100 µM [3]: 40% | inhibition (INH) [2]: Not Active

CC(=O)c1cc2cc(Br)ccc2oc1=O
Ratio IC50 (Homo sapiens): < 0.52 | inhibition at 100 µM [3]: 40% | IC50 [4]: 51.6 µM

CC(=O)c1cc2cccc(O)c2oc1=O
Ratio IC50 (Homo sapiens): 0.93 | IC50 [1]: 42.1 µM | IC50 [4]: 39.4 µM

O=C(c1ccccc1)c1cc2cc(Br)cc(Br)c2oc1=O
inhibition at 100 µM [3]: 40% | inhibition (INH) [2]: Not Active

CCOC(=O)c1cc2cc(OC)ccc2oc1=O
Ratio IC50 (Homo sapiens): > 4.6 | Stability [5]: Stable | Stability [6]: Stable | IC50 [1]: 21.6 µM | inhibition (INH) [2]: Not Active | Stability [7]: Stable | Stability [8]: Stable

CC(=O)c1cc2ccc(O)cc2oc1=O
inhibition (INH) [3]: Not Active | inhibition (INH) [2]: Not Active

O=C(c1ccccc1)c1cc2cc(I)cc(I)c2oc1=O
inhibition (INH) [3]: Not Active | inhibition (INH) [2]: Not Active

CCOC(=O)c1cc2ccc(N(CC)CC)cc2oc1=O
Ratio IC50 (Homo sapiens): > 2.2 | IC50 [1]: 45.5 µM | inhibition (INH) [2]: Not Active

COc1ccc2cc(C(C)=O)c(=O)oc2c1
Ratio IC50 (Homo sapiens): > 6.5 | IC50 [1]: 15.4 µM | inhibition at 100 µM [2]: 40%

O=C(O)c1cc2ccc(OCc3cccc(Cl)c3)cc2oc1=O
Ratio IC50 (Homo sapiens): > 55 | IC50 [1]: 1.8 µM | inhibition (INH) [2]: Not Active

CCN(CC)c1ccc2cc(C(=O)c3ccccc3)c(=O)oc2c1
Ratio IC50 (Homo sapiens): > 4.2 | IC50 [1]: 23.8 µM | inhibition (INH) [2]: Not Active

O=C(NNc1ccc(Cl)cc1)c1cc2ccccc2oc1=O
Ratio IC50 (Homo sapiens): 40.4 | IC50 [1]: 1.19 µM | IC50 [4]: 48 µM

CCOC(=O)c1cc2ccc(OCc3cccc(Cl)c3)cc2oc1=O
Ratio IC50 (Homo sapiens): > 1630 | Stability [5]: Stable | Stability [6]: Stable | IC50 [1]: 0.0612 µM | inhibition (INH) [2]: Not Active | Stability [7]: Stable | Stability [8]: Stable

CCOC(=O)c1cc2ccc(OCc3ccc(C(C)(C)C)cc3)cc2oc1=O
Ratio IC50 (Homo sapiens): > 27 | Stability [5]: Stable | Stability [6]: Stable | IC50 [1]: 3.75 µM | inhibition (INH) [2]: Not Active | Stability [7]: Stable | Stability [8]: Stable

CCOC(=O)c1cc2cccc(O)c2oc1=O
Ratio IC50 (Homo sapiens): 2.7 | IC50 [1]: 14.8 µM | IC50 [4]: 40.5 µM
